Laboratory results from ChEMBL document CHEMBL3351515, “α-Hexylcinnamaldehyde inhibits the genotoxicity of environmental pollutants in the bacterial reverse mutation assay” (2014).

Columns and labels:
Escherichia coli [1] = assay: Antimutagenic activity against methyl methansulfonate-induced revertant colonies in Escherichia coli WP2uvrA assessed as number of revertant colonies measured cotreatment at 900 uM (reference value: 485.3 +/- 17.5) in absence of mammalian S9 fraction; assay type: functional
Escherichia coli [2] = assay: Antimutagenic activity against methyl methansulfonate-induced revertant colonies in Escherichia coli WP2uvrA assessed as number of revertant colonies measured cotreatment at 9 uM (reference value: 485.3 +/- 17.5) in absence of mammalian S9 fraction; assay type: functional
Escherichia coli [3] = assay: Antimutagenic activity against 2-aminoanthracene-induced revertant colonies in Escherichia coli WP2uvrA assessed as number of revertant colonies measured post-treatment at 900 uM (reference value: 308 +/- 4) in presence of mammalian S9 fraction; assay type: functional
Escherichia coli [4] = assay: Antimutagenic activity against 2-aminoanthracene-induced revertant colonies in Escherichia coli WP2uvrA assessed as number of revertant colonies measured post-treatment at 180 uM (reference value: 308 +/- 4) in presence of mammalian S9 fraction; assay type: functional
Salmonella typhimurium [5] = assay: Antimutagenic activity against 1-nitropyrene-induced revertant colonies in Salmonella typhimurium TA98 assessed as inhibition of mutagenicity measured at 9 to 18 uM; assay type: functional, Salmonella enterica subsp. enterica serovar Typhimurium
Escherichia coli [6] = assay: Antimutagenic activity against methyl methansulfonate-induced revertant colonies in Escherichia coli WP2uvrA assessed as number of revertant colonies measured cotreatment at 180 uM (reference value: 485.3 +/- 17.5) in absence of mammalian S9 fraction; assay type: functional
Salmonella typhimurium [7] = assay: Antimutagenic activity against 2-aminoanthracene-induced revertant colonies in Salmonella typhimurium TA100 assessed as number of revertant colonies measured post-treatment at 90 uM (reference value: 642.7 +/- 2.7) in presence of mammalian S9 fraction; assay type: functional, Salmonella enterica subsp. enterica serovar Typhimurium
Escherichia coli [8] = assay: Antimutagenic activity against 2-aminoanthracene-induced revertant colonies in Escherichia coli WP2uvrA assessed as number of revertant colonies measured pretreatment at 18 uM (reference value: 178.7 +/- 11.8) in presence of mammalian S9 fraction; assay type: functional
Salmonella typhimurium [9] = assay: Antimutagenic activity against 2-aminoanthracene-induced revertant colonies in Salmonella typhimurium TA100 assessed as number of revertant colonies measured cotreatment at 9 uM (reference value: 457.9 +/- 16.74) in presence of mammalian S9 fraction; assay type: functional, Salmonella enterica subsp. enterica serovar Typhimurium
Salmonella typhimurium [10] = assay: Antimutagenic activity against 1-nitropyrene-induced revertant colonies in Salmonella typhimurium TA98 1,8 DNP assessed as inhibition of mutagenicity measured at 90 to 180 uM; assay type: functional, Salmonella enterica subsp. enterica serovar Typhimurium
Salmonella typhimurium [11] = assay: Antimutagenic activity against 2-nitrofluorene-induced revertant colonies in Salmonella typhimurium TA98 assessed as inhibition of mutagenicity measured at 900 uM; assay type: functional, Salmonella enterica subsp. enterica serovar Typhimurium; conditions: Salmonella enterica
Salmonella typhimurium [12] = assay: Antimutagenic activity against 2-aminoanthracene-induced revertant colonies in Salmonella typhimurium TA100 assessed as number of revertant colonies measured cotreatment at 900 uM (reference value: 457.9 +/- 16.74) in presence of mammalian S9 fraction; assay type: functional, Salmonella enterica subsp. enterica serovar Typhimurium
Escherichia coli [13] = assay: Antimutagenic activity against methyl methansulfonate-induced revertant colonies in Escherichia coli WP2uvrA assessed as number of revertant colonies measured pretreatment at 180 uM (reference value: 466.7 +/- 40.4) in absence of mammalian S9 fraction; assay type: functional
Salmonella typhimurium [14] = assay: Antimutagenic activity against 2-nitrofluorene-induced revertant colonies in Salmonella typhimurium TA98 assessed as inhibition of mutagenicity measured at 90 to 180 uM; assay type: functional, Salmonella enterica subsp. enterica serovar Typhimurium
Salmonella typhimurium [15] = assay: Antimutagenic activity against 2-aminoanthracene-induced revertant colonies in Salmonella typhimurium TA100 assessed as number of revertant colonies measured pretreatment at 180 uM (reference value: 481.3 +/- 5.3) in presence of mammalian S9 fraction; assay type: functional, Salmonella enterica subsp. enterica serovar Typhimurium
Escherichia coli [16] = assay: Antimutagenic activity against 2-aminoanthracene-induced revertant colonies in Escherichia coli WP2uvrA assessed as number of revertant colonies measured cotreatment at 900 uM (reference value: 366 +/- 10.3) in presence of mammalian S9 fraction; assay type: functional
Salmonella typhimurium [17] = assay: Antimutagenic activity against 4-nitroquinoline N-oxide-induced revertant colonies in Salmonella typhimurium TA98 assessed as inhibition of mutagenicity measured at 9 to 18 uM; assay type: functional, Salmonella enterica subsp. enterica serovar Typhimurium
Salmonella typhimurium [18] = assay: Antimutagenic activity against 1,8-dinitropyrene-induced revertant colonies in Salmonella typhimurium TA98 assessed as inhibition of mutagenicity measured at 900 uM; assay type: functional, Salmonella enterica subsp. enterica serovar Typhimurium; conditions: Salmonella enterica
Salmonella typhimurium [19] = assay: Antimutagenic activity against sodium azide-induced revertant colonies in Salmonella typhimurium TA100 assessed as number of revertant colonies measured cotreatment at 90 uM (reference value: 1588 +/- 55.6) in absence of mammalian S9 fraction; assay type: functional, Salmonella enterica subsp. enterica serovar Typhimurium

SMILES: CCCCCC/C(C=O)=C\c1ccccc1
- Activity (Escherichia coli [1]): 402.7
- Activity (Escherichia coli [2]): 484
- Activity (Escherichia coli [3]): 304.3
- Activity (Escherichia coli [4]): 302.7
- inhibition (INH) (Salmonella typhimurium [5]): <25%
- Activity (Escherichia coli [6]): 448
- Activity (Salmonella typhimurium [7]): 530
- Activity (Escherichia coli [8]): 166.7
- Activity (Salmonella typhimurium [9]): 449.3
- inhibition (INH) (Salmonella typhimurium [10]): 25%
- inhibition at 900 µM (Salmonella typhimurium [11]): > 40%
- Activity (Salmonella typhimurium [12]): 347
- Activity (Escherichia coli [13]): 376
- inhibition (INH) (Salmonella typhimurium [14]): 25%
- Activity (Salmonella typhimurium [15]): 384
- Activity (Escherichia coli [16]): 293.5
- inhibition (INH) (Salmonella typhimurium [17]): <25%
- inhibition at 900 µM (Salmonella typhimurium [18]): > 40%
- Activity (Salmonella typhimurium [19]): 1477
